Assay results as given in ChEMBL document CHEMBL4028830, “Novel pyrazoles and pyrazolo[1,2-a]pyridazines as selective COX-2 inhibitors; Ultrasound-assisted synthesis, biological evaluation, and DFT calculations” (Bioorg Med Chem Lett, 2017).
Blank lines part the entries; values can stand above or below the compound they belong to.

Experiments:
Rattus norvegicus [1] = assay: Analgesic activity in albino rat model of thermal-induced nociception assessed as tail withdrawal latency time at 100 mg/kg, po measured at 60 mins post dose by tail immersion test (reference value: 2.62 +/- 0.11 min); assay type: functional
Rattus norvegicus [2] = assay: Analgesic activity in albino rat model of thermal-induced nociception assessed as tail withdrawal latency time at 100 mg/kg, po measured at 180 mins post dose by tail immersion test (reference value: 2.62 +/- 0.13 min); assay type: functional
Rattus norvegicus [3] = assay: Analgesic activity in albino rat model of thermal-induced nociception assessed as tail withdrawal latency time at 100 mg/kg, po measured at 300 mins post dose by tail immersion test (reference value: 2.58 +/- 0.11 min); assay type: functional
Rattus norvegicus [4] = assay: Anti-inflammatory activity against carrageenan-induced paw oedema in rat assessed as paw thickness at 100 mg/kg measured immediately (reference value: 0.98 +/- 0.03 cm); assay type: functional
Rattus norvegicus [5] = assay: Analgesic activity in albino rat model of thermal-induced nociception assessed as tail withdrawal latency time at 100 mg/kg, po measured at 120 mins post dose by tail immersion test (reference value: 2.63 +/- 0.15 min); assay type: functional
Rattus norvegicus [6] = assay: Anti-inflammatory activity against carrageenan-induced paw oedema in albino rat assessed as paw thickness at 100 mg/kg measured at 6 hrs post dose (reference value: 0.92 +/- 0.03 cm); assay type: functional
[7] = molecular target: Prostaglandin G/H synthase 1 (Homo sapiens, UniProt P23219); assay: Inhibition of COX1 (unknown origin) using arachidonic acid as substrate pretreated for 10 mins followed by substrate addition measured after 2 mins by enzyme-immunoassay
Sequence of Prostaglandin G/H synthase 1 (P23219 whole entry): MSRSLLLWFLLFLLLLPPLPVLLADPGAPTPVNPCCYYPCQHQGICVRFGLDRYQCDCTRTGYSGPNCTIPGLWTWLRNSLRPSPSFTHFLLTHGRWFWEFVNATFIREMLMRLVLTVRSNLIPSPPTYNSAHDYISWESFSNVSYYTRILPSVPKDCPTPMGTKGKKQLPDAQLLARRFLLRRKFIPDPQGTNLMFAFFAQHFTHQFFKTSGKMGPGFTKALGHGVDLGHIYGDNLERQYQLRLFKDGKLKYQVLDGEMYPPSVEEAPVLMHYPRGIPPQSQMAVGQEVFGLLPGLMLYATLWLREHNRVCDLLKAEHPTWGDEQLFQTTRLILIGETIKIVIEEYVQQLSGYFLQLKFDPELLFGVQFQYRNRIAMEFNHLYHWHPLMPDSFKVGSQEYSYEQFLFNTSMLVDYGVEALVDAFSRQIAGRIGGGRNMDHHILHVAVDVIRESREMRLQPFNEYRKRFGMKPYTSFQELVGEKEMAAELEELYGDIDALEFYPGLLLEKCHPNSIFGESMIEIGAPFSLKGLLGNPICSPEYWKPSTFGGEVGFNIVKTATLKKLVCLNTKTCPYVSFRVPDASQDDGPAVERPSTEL

[8] = molecular target: T1, Prostaglandin G/H synthase 2 (Homo sapiens, UniProt P35354); assay: Inhibition of COX2 (unknown origin) using arachidonic acid as substrate pretreated for 10 mins followed by substrate addition measured after 2 mins by enzyme-immunoassay
T1 sequence (P35354 whole entry): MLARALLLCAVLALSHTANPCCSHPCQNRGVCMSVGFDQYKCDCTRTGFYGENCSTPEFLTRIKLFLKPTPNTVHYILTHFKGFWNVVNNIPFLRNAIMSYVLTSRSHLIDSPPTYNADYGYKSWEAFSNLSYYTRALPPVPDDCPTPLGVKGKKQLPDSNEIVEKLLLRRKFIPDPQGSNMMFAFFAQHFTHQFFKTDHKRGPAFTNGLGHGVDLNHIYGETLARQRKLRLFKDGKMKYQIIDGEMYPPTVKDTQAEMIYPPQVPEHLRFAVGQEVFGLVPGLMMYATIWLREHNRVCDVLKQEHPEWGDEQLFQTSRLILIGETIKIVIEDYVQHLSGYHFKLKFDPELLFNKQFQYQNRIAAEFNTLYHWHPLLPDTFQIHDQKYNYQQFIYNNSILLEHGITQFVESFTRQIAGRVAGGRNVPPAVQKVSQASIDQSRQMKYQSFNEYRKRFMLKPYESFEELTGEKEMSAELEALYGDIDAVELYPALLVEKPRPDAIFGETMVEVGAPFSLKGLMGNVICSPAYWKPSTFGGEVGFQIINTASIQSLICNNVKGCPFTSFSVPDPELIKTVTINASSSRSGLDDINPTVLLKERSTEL

Rattus norvegicus [9] = assay: Analgesic activity in albino rat model of thermal-induced nociception assessed as tail withdrawal latency time at 100 mg/kg, po measured at 240 mins post dose by tail immersion test (reference value: 2.62 +/- 0.13 min); assay type: functional
Rattus norvegicus [10] = assay: Anti-inflammatory activity against carrageenan-induced paw oedema in albino rat assessed as paw thickness at 100 mg/kg measured at 3 hrs post dose (reference value: 0.93 +/- 0.02 cm); assay type: functional
Rattus norvegicus [11] = assay: Analgesic activity in albino rat model of thermal-induced nociception assessed as tail withdrawal latency time at 100 mg/kg, po measured immediately by tail immersion test (reference value: 2.60 +/- 0.14 min); assay type: functional
Homo sapiens = species on record: Homo sapiens; assay: Selectivity index, ratio of IC50 for COX1 (unknown origin) to IC50 for COX2 (unknown origin)

Structure (SMILES): O=C(NN1C(=O)CCC1=O)c1ccccc1O
Time (Rattus norvegicus [1]): 5.02 min
Time (Rattus norvegicus [2]): 4.85 min
Time (Rattus norvegicus [3]): 5.78 min
Activity (Rattus norvegicus [4]): 1 cm
Time (Rattus norvegicus [5]): 4.98 min
Activity (Rattus norvegicus [6]): 0.62 cm
IC50 [7]: Not Active
IC50 [8]: Not Active
Time (Rattus norvegicus [9]): 5.28 min
Activity (Rattus norvegicus [10]): 0.73 cm
Time (Rattus norvegicus [11]): 2.42 min

Structure (SMILES): O=C([O-])Cc1ccccc1Nc1c(Cl)cccc1Cl.[Na+] [DICLOFENAC SODIUM]
Time (Rattus norvegicus [1]): 6.44 min
Time (Rattus norvegicus [2]): 4.87 min
Time (Rattus norvegicus [3]): 3.99 min
Activity (Rattus norvegicus [4]): 1.02 cm
Time (Rattus norvegicus [5]): 4.98 min
Activity (Rattus norvegicus [6]): 0.63 cm
Time (Rattus norvegicus [9]): 4.21 min
Activity (Rattus norvegicus [10]): 0.77 cm
Time (Rattus norvegicus [11]): 2.63 min

Structure (SMILES): CCOC(=O)C1=C(N)N2C(=O)CCC(=O)N2C1c1ccccc1O (stereo not given)
Time (Rattus norvegicus [1]): 5.53 min
Time (Rattus norvegicus [2]): 6.85 min
Time (Rattus norvegicus [3]): 5.62 min
Activity (Rattus norvegicus [4]): 1.02 cm
Time (Rattus norvegicus [5]): 6.68 min
Activity (Rattus norvegicus [6]): 0.65 cm
IC50 ([7]; read-out: IC50): 88.1 nM
Selectivity Index (Homo sapiens): 0.47
IC50 ([8]; read-out: IC50): 181 nM
Time (Rattus norvegicus [9]): 6.33 min
Activity (Rattus norvegicus [10]): 0.7 cm
Time (Rattus norvegicus [11]): 2.63 min

Structure (SMILES): CCOC(=O)C1=C(N)n2c(=O)c3ccccc3c(=O)n2C1c1ccccc1O (stereo not given)
Time (Rattus norvegicus [1]): 5.53 min
Time (Rattus norvegicus [2]): 6.85 min
Time (Rattus norvegicus [3]): 5.62 min
Activity (Rattus norvegicus [4]): 0.97 cm
Time (Rattus norvegicus [5]): 6.68 min
Activity (Rattus norvegicus [6]): 0.67 cm
IC50 [7]: Not Active
IC50 [8]: Not Active
Time (Rattus norvegicus [9]): 6.33 min
Activity (Rattus norvegicus [10]): 0.72 cm
Time (Rattus norvegicus [11]): 2.52 min

Structure (SMILES): CC1=NN(C(=O)c2ccccc2O)C(=O)C1
Time (Rattus norvegicus [1]): 5.52 min
Time (Rattus norvegicus [2]): 4.7 min
Time (Rattus norvegicus [3]): 4.4 min
Activity (Rattus norvegicus [4]): 1.02 cm
Time (Rattus norvegicus [5]): 4.78 min
Activity (Rattus norvegicus [6]): 0.67 cm
IC50 ([7]; read-out: IC50): 82.1 nM
Selectivity Index (Homo sapiens): 0.54
IC50 ([8]; read-out: IC50): 151 nM
Time (Rattus norvegicus [9]): 4.67 min
Activity (Rattus norvegicus [10]): 0.77 cm
Time (Rattus norvegicus [11]): 2.48 min

Structure (SMILES): O=C(NN1C(=O)c2ccccc2C1=O)c1ccccc1O
Time (Rattus norvegicus [1]): 5.58 min
Time (Rattus norvegicus [2]): 6.25 min
Time (Rattus norvegicus [3]): 7.2 min
Activity (Rattus norvegicus [4]): 0.98 cm
Time (Rattus norvegicus [5]): 5.58 min
Activity (Rattus norvegicus [6]): 0.72 cm
IC50 ([7]; read-out: IC50): 92.2 nM
Selectivity Index (Homo sapiens): 0.71
IC50 ([8]; read-out: IC50): 130 nM
Time (Rattus norvegicus [9]): 6.23 min
Activity (Rattus norvegicus [10]): 0.73 cm
Time (Rattus norvegicus [11]): 2.55 min

Structure (SMILES): O=C(/C=C/c1ccccc1O)Nc1ccccc1
Time (Rattus norvegicus [1]): 3.78 min
Time (Rattus norvegicus [2]): 4.18 min
Time (Rattus norvegicus [3]): 3.97 min
Activity (Rattus norvegicus [4]): 1.02 cm
Time (Rattus norvegicus [5]): 4.12 min
Activity (Rattus norvegicus [6]): 0.65 cm
Time (Rattus norvegicus [9]): 3.92 min
Activity (Rattus norvegicus [10]): 0.83 cm
Time (Rattus norvegicus [11]): 2.63 min

Structure (SMILES): O=C(NN1C(=O)C=CC1=O)c1ccccc1O
Time (Rattus norvegicus [1]): 5.98 min
Time (Rattus norvegicus [2]): 5.47 min
Time (Rattus norvegicus [3]): 5.13 min
Activity (Rattus norvegicus [4]): 1 cm
Time (Rattus norvegicus [5]): 5.52 min
Activity (Rattus norvegicus [6]): 0.77 cm
IC50 [7]: Not Active
IC50 [8]: Not Active
Time (Rattus norvegicus [9]): 5.23 min
Activity (Rattus norvegicus [10]): 0.83 cm
Time (Rattus norvegicus [11]): 2.58 min

The next lines start with results.

IC50 ([7]; read-out: IC50): 74.4 nM
Selectivity Index (Homo sapiens): 0.83
IC50 ([8]; read-out: IC50): 90.1 nM
Structure (SMILES): CCOC(=O)C1=C(N)n2c(=O)ccc(=O)n2C1c1ccccc1O (stereo not given)
Time (Rattus norvegicus [1]): 4.33 min
Time (Rattus norvegicus [2]): 4.58 min
Time (Rattus norvegicus [3]): 4.43 min
Activity (Rattus norvegicus [4]): 1.03 cm
Time (Rattus norvegicus [5]): 4.47 min
Activity (Rattus norvegicus [6]): 0.7 cm
Time (Rattus norvegicus [9]): 4.52 min
Activity (Rattus norvegicus [10]): 0.82 cm
Time (Rattus norvegicus [11]): 2.72 min

IC50 [7]: Not Active
IC50 [8]: Not Active
Structure (SMILES): O=C(NN1C(=O)c2cccnc2C1=O)c1ccccc1O
Time (Rattus norvegicus [1]): 3.78 min
Time (Rattus norvegicus [2]): 4.3 min
Time (Rattus norvegicus [3]): 4.17 min
Activity (Rattus norvegicus [4]): 0.97 cm
Time (Rattus norvegicus [5]): 3.97 min
Activity (Rattus norvegicus [6]): 0.72 cm
Time (Rattus norvegicus [9]): 4.27 min
Activity (Rattus norvegicus [10]): 0.83 cm
Time (Rattus norvegicus [11]): 2.57 min

IC50 ([7]; read-out: IC50): 66.7 nM
Selectivity Index (Homo sapiens): 3.32
IC50 ([8]; read-out: IC50): 20.1 nM
Structure (SMILES): CCOC(=O)C1=C(N)n2c(=O)c3ncccc3c(=O)n2C1c1ccccc1O (stereo not given)
Time (Rattus norvegicus [1]): 5.83 min
Time (Rattus norvegicus [2]): 5.75 min
Time (Rattus norvegicus [3]): 4.08 min
Activity (Rattus norvegicus [4]): 0.98 cm
Time (Rattus norvegicus [5]): 5.53 min
Activity (Rattus norvegicus [6]): 0.62 cm
Time (Rattus norvegicus [9]): 5.25 min
Activity (Rattus norvegicus [10]): 0.68 cm
Time (Rattus norvegicus [11]): 2.55 min

IC50 [7]: Not Active
IC50 [8]: Not Active
Structure (SMILES): Cc1cc(C)n(C(=O)c2ccccc2O)n1
Time (Rattus norvegicus [1]): 6.05 min
Time (Rattus norvegicus [2]): 4.83 min
Time (Rattus norvegicus [3]): 4.8 min
Activity (Rattus norvegicus [4]): 0.98 cm
Time (Rattus norvegicus [5]): 5.79 min
Activity (Rattus norvegicus [6]): 0.67 cm
Time (Rattus norvegicus [9]): 5.66 min
Activity (Rattus norvegicus [10]): 0.75 cm
Time (Rattus norvegicus [11]): 2.62 min

IC50 ([7]; read-out: IC50): 70.4 nM
Selectivity Index (Homo sapiens): 4.35
IC50 ([8]; read-out: IC50): 16.2 nM
Structure (SMILES): O=C(c1ccccc1O)n1nc(Nc2ccccc2)cc1-c1ccccc1O
Time (Rattus norvegicus [1]): 3.95 min
Time (Rattus norvegicus [2]): 4.18 min
Time (Rattus norvegicus [3]): 4.22 min
Activity (Rattus norvegicus [4]): 0.97 cm
Time (Rattus norvegicus [5]): 4.05 min
Activity (Rattus norvegicus [6]): 0.55 cm
Time (Rattus norvegicus [9]): 4.07 min
Activity (Rattus norvegicus [10]): 0.63 cm
Time (Rattus norvegicus [11]): 2.47 min
